From patent US9227971B2, “Pyrazolo[1,5-a]pyrimidine compounds as mTOR inhibitors” (Merck Sharp & Dohme Corp., priority 2010, dated 2016)

System: phosphorylated AKT Ser473 (pAKT S473), mTORC2 activity, PC3 cells
Assay: mTOR target engagement assay, immunofluorescent cell-based, pAKT S473 readout (mTORC2 activity)
Protocol: The target engagement of mTOR kinase inhibitors was evaluated using an immunofluorescent cell-based assay. In this assay, inhibition of mTORC1 activity was measured by the reduction in the level of phosphorylated 4E-BP1^[…] (p4E-BP1 Thr37/46), and inhibition of mTORC2 activity was measured by the reduction of phosphorylated AKT^Ser473 (pAKT S473).
PC3 cells (prostate tumor cell-line that contains a mutation in the tumor suppressor PTEN, that promotes the phosphorylation and activation of AKT and 4E-BP1) were used in the immunofluorescence assay. […] PC3 cells were then treated with 40 μl of the serially diluted test compounds (in 5% fetal bovine serum, F12 medium containing 0.25% DMSO) for ninety minutes at 37° C. The test compound solution was removed, and the plates were washed gently two times with 25 μl phosphate buffered saline (PBS). […] 5% Goat serum in PBS/0.3% Triton was used to block non-specific binding (60 minutes).
The primary antibodies targeting pAKT S473 and p4E-BP1 Thr37/46 were diluted into PBS/0.3% Triton and incubated with the cells overnight at 4° C. […] Plates were washed three times with PBS/0.1% Tween 20 before adding the secondary antibody at a 1:200 dilution.
Finally, the plates were washed three times with PBS/0.1% Tween 20 and the fluorescent intensity was read using an Analyst HT from Molecular Devices.

[1] = Homo sapiens, PC-3, PC3 cells, compound treatment ninety minutes at 37° C.
[2] = Homo sapiens, PC-3, Table 3-1, PC3 cells
[3] = Homo sapiens, PC-3, Table 6-1, PC3 cells

Structure (SMILES)	IC50 [1] [nM]	IC50 [3] [nM]	further results
CC(=O)c1c([C@@H]2C[C@H]3CC[C@@H](C2)N3C(=O)[C@H](O)CO)nc2c(-c3ccc(-c4ccccc4)nc3)cnn2c1N [Compound 1.1.3, (R)-1-((1R,3S,5S)-3-(6-acetyl-7-amino-3-(6-phenylpyridin-3-yl)pyrazolo[1,5-a]pyrimidin-5-yl)-8-azabicyclo[3.2.1]octan-8-yl)-2,3-dihydroxypropan-1-one]	100 to 1000	–	–
CC(=O)c1c([C@@H]2C[C@H]3CC[C@@H](C2)N3C(=O)C(C)(C)O)nc2c(-c3ccc(-c4ccccc4)nc3)cnn2c1N [Compound 1.1.6, 1-((1R,3s,5S)-3-(6-acetyl-7-amino-3-(6-phenylpyridin-3-yl)pyrazolo[1,5-a]pyrimidin-5-yl)-8-azabicyclo[3.2.1]octan-8-yl)-2-hydroxy-2-methylpropan-1-one]	100 to 1000	–	–
CC(=O)c1c([C@@H]2C[C@H]3CC[C@@H](C2)N3C(=O)[C@@H](C)O)nc2c(-c3ccc(-c4nccs4)nc3)cnn2c1N [Compound 1.1.34, (R)-1-((1R,3S,5S)-3-(6-acetyl-7-amino-3-(6-(thiazol-2-yl)pyridin-3-yl)pyrazolo[1,5-a]pyrimidin-5-yl)-8-azabicyclo[3.2.1]octan-8-yl)-2-hydroxypropan-1-one]	100 to 1000	–	–
CC(=O)c1c([C@@H]2C[C@H]3CC[C@@H](C2)N3C(=O)C(C)(C)O)nc2c(-c3ccc(-c4nccs4)nc3)cnn2c1N [Compound 1.1.35, 1-((1R,3s,5S)-3-(6-acetyl-7-amino-3-(6-(thiazol-2-yl)pyridin-3-yl)pyrazolo[1,5-a]pyrimidin-5-yl)-8-azabicyclo[3.2.1]octan-8-yl)-2-hydroxy-2-methylpropan-1-one]	100 to 1000	–	–
CC(=O)c1c([C@@H]2C[C@H]3CC[C@@H](C2)N3C(=O)c2ccn[nH]2)nc2c(-c3ccc(-c4ccc(F)cc4)nc3)cnn2c1N [Compound 1.1.157, 1-(5-((1R,3s,5S)-8-(1H-pyrazole-5-carbonyl)-8-azabicyclo[3.2.1]octan-3-yl)-7-amino-3-(6-(4-fluorophenyl)pyridin-3-yl)pyrazolo[1,5-a]pyrimidin-6-yl)ethanone]	1 to 100	–	–
CC(=O)c1c([C@@H]2C[C@H]3CC[C@@H](C2)N3C(=O)[C@@H](C)O)nc2c(-c3ccc(-c4ccc(F)cc4)nc3)cnn2c1N [Compound 1.1.158, (R)-1-((1R,3S,5S)-3-(6-acetyl-7-amino-3-(6-(4-fluorophenyl)pyridin-3-yl)pyrazolo[1,5-a]pyrimidin-5-yl)-8-azabicyclo[3.2.1]octan-8-yl)-2-hydroxypropan-1-one]	100 to 1000	–	–
CS(=O)(=O)c1c([C@@H]2C[C@H]3CC[C@@H](C2)N3C(=O)CO)nc2c(-c3ccc(-c4ccc(F)cc4)nc3)cnn2c1N [Compound 3.118, 1-((1R,3a,5S)-3-(7-amino-3-(6-(4-fluorophenyl)pyridin-3-yl)-6-(methylsulfonyl)pyrazolo[1,5-a]pyrimidin-5-yl)-8-azabicyclo[3.2.1]octan-8-yl)-2-hydroxyethanone]	–	–	IC50 (Table 3-1, PC3 cells): 100 to 1000 nM
CS(=O)(=O)c1c([C@@H]2C[C@H]3CC[C@@H](C2)N3C(=O)c2ccn[nH]2)nc2c(-c3ccc(-c4ccc(F)cc4)nc3)cnn2c1N [Compound 3.121, ((1R,3s,5S)-3-(7-amino-3-(6-(4-fluorophenyl)pyridin-3-yl)-6-(methylsulfonyl)pyrazolo[1,5-a]pyrimidin-5-yl)-8-azabicyclo[3.2.1]octan-8-yl)(1H-pyrazol-5-yl)methanone]	–	–	IC50 [2]: 1 to 100 nM
C[C@@H](O)C(=O)N1[C@@H]2CC[C@H]1C[C@H](c1nc3c(-c4ccc(-c5ccc(F)cc5)nc4)cnn3c(N)c1S(C)(=O)=O)C2 [Compound 3.122, (R)-1-((1R,3S,5S)-3-(7-amino-3-(6-(4-fluorophenyl)pyridin-3-yl)-6-(methylsulfonyl)pyrazolo[1,5-a]pyrimidin-5-yl)-8-azabicyclo[3.2.1]octan-8-yl)-2-hydroxypropan-1-one]	–	–	IC50 [2]: 100 to 1000 nM
Cc1ccc(-c2cnn3c(N)c(C4CC4)c([C@@H]4C[C@H]5CC[C@@H](C4)N5C(=O)c4nnc[nH]4)nc23)cn1 [Compound 4.16, ((1R,3s,5S)-3-(7-amino-6-cyclopropyl-3-(6-methylpyridin-3-yl)pyrazolo[1,5-a]pyrimidin-5-yl)-8-azabicyclo[3.2.1]octan-8-yl)(4H-1,2,4-triazol-3-yl)methanone]	100 to 1000	–	–
Cn1cnc(-c2ccc(-c3cnn4c(N)c(C5CC5)c([C@@H]5C[C@H]6CC[C@@H](C5)N6C(=O)c5nnc[nH]5)nc34)cn2)c1 [Compound 4.23, ((1R,3a,5S)-3-(7-amino-6-cyclopropyl-3-(6-(1-methyl-1H-imidazol-4-yl)pyridin-3-yl)pyrazolo[1,5-a]pyrimidin-5-yl)-8-azabicyclo[3.2.1]octan-8-yl)(4H-1,2,4-triazol-3-yl)methanone]	1000 to 10000	–	–
CC(=O)c1c([C@@H]2C[C@H]3CC[C@@H](C2)N3C(=O)[C@H](C)O)nc2c(-c3ccc(-c4ncc[nH]4)nc3)cnn2c1N [Compound 6.8, (S)-1-((1R,3R,5S)-3-(3-(6-(1H-imidazol-2-yl)pyridin-3-yl)-6-acetyl-7-aminopyrazolo[1,5-a]pyrimidin-5-yl)-8-azabicyclo[3.2.1]octan-8-yl)-2-hydroxypropan-1-one]	–	1 to 100	–
CC(=O)OCC(=O)N1[C@@H]2CC[C@H]1C[C@H](c1nc3c(-c4ccc(-c5ncc[nH]5)nc4)cnn3c(N)c1C(C)=O)C2 [Compound 6.9, 2-((1R,3s,5S)-3-(3-(6-(1H-imidazol-2-yl)pyridin-3-yl)-6-acetyl-7-aminopyrazolo[1,5-a]pyrimidin-5-yl)-8-azabicyclo[3.2.1]octan-8-yl)-2-oxoethyl acetate]	–	100 to 1000	–
COCCOCC(=O)N1[C@@H]2CC[C@H]1C[C@H](c1nc3c(-c4ccc(-c5ncc[nH]5)nc4)cnn3c(N)c1C(C)=O)C2 [Compound 6.13, 1-((1R,3s,5S)-3-(3-(6-(1H-imidazol-2-yl)pyridin-3-yl)-6-acetyl-7-aminopyrazolo[1,5-a]pyrimidin-5-yl)-8-azabicyclo[3.2.1]octan-8-yl)-2-(2-methoxyethoxy)ethanone]	–	1 to 100	–
CC(=O)c1c([C@@H]2C[C@H]3CC[C@@H](C2)N3C(=O)c2cc(N)n[nH]2)nc2c(-c3ccc(-c4ncc[nH]4)nc3)cnn2c1N [Compound 6.17, 1-(3-(6-(1H-imidazol-2-yl)pyridin-3-yl)-7-amino-5-((1R,3s,5S)-8-(3-amino-1H-pyrazole-5-carbonyl)-8-azabicyclo[3.2.1]octan-3-yl)pyrazolo[1,5-a]pyrimidin-6-yl)ethanone]	–	1 to 100	–
CC(=O)c1c([C@@H]2C[C@H]3CC[C@@H](C2)N3C(=O)CO)nc2c(-c3cnc(-c4ncc[nH]4)c(F)c3)cnn2c1N [Compound 6.28, 1-((1R,3s,5S)-3-(6-acetyl-7-amino-3-(5-fluoro-6-(1H-imidazol-2-yl)pyridin-3-yl)pyrazolo[1,5-a]pyrimidin-5-yl)-8-azabicyclo[3.2.1]octan-8-yl)-2-hydroxyethanone]	–	1 to 100	–
Nc1c(C2CC2)c([C@@H]2C[C@H]3CC[C@@H](C2)N3C(=O)CO)nc2c(-c3cnc(-c4ncc[nH]4)c(F)c3)cnn12 [Compound 6.29, 1-((1R,3s,5S)-3-(7-amino-6-cyclopropyl-3-(5-fluoro-6-(1H-imidazol-2-yl)pyridin-3-yl)pyrazolo[1,5-a]pyrimidin-5-yl)-8-azabicyclo[3.2.1]octan-8-yl)-2-hydroxyethanone]	–	100 to 1000	–
CC(=O)c1c([C@@H]2C[C@H]3CC[C@@H](C2)N3C(=O)CO)nc2c(-c3cnc(-c4ncc[nH]4)c(C)c3)cnn2c1N [Compound 6.33, 1-((1R,3s,5S)-3-(3-(6-(1H-imidazol-2-yl)-5-methylpyridin-3-yl)-6-acetyl-7-aminopyrazolo[1,5-a]pyrimidin-5-yl)-8-azabicyclo[3.2.1]octan-8-yl)-2-hydroxyethanone]	–	1000 to 10000	–
CC(=O)c1c([C@@H]2C[C@H]3CC[C@@H](C2)N3C(=O)C(C)(C)CO)nc2c(-c3ccc(-c4ncc[nH]4)nc3)cnn2c1N [Compound 6.45, 1-((1R,3s,5S)-3-(3-(6-(1H-imidazol-2-yl)pyridin-3-yl)-6-acetyl-7-aminopyrazolo[1,5-a]pyrimidin-5-yl)-8-azabicyclo[3.2.1]octan-8-yl)-3-hydroxy-2,2-dimethylpropan-1-one]	–	100 to 1000	–
CC(=O)c1c([C@@H]2C[C@H]3CC[C@@H](C2)N3C(=O)c2cnn[nH]2)nc2c(-c3ccc(C4(O)CCC4)nc3)cnn2c1N [Compound 7.19, 1-(5-((1R,3s,5S)-8-(1H-1,2,3-triazole-5-carbonyl)-8-azabicyclo[3.2.1]octan-3-yl)-7-amino-3-(6-(1-hydroxycyclobutyl)pyridin-3-yl)pyrazolo[1,5-a]pyrimidin-6-yl)ethanone]	100 to 1000	–	–
CS(=O)(=O)c1c([C@@H]2C[C@H]3CC[C@@H](C2)N3C(=O)CO)nc2c(-c3ccc(C4(O)CCC4)nc3)cnn2c1N [Compound 7.28, 1-((1R,3s,5S)-3-(7-amino-3-(6-(1-hydroxycyclobutyl)pyridin-3-yl)-6-(methylsulfonyl)pyrazolo[1,5-a]pyrimidin-5-yl)-8-azabicyclo[3.2.1]octan-8-yl)-2-hydroxyethanone]	–	–	IC50 (Table 7-2, PC3 cells): 100 to 1000 nM
